# “And” between values parts separate entries of the source, which are not always exact repeats. Equal entries are not always repeated.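 Briefly, cells in 96-well plates were exposed to five compound concentrations for 48 h, and endpoints were estimated by linear interpolation. GI50 = concentration required for 50% inhibition of growth. TGI is the concentration that stops growth completely.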
# What was measured:
# Test in all cases: inhibition of tumour cell growth, NCI panel, 48 h
# DMS 273 small cell lung = test system: DMS 273 small cell lung
# MDA-MB-231 breast = test system: MDA-MB-231 breast
# SN12C renal = test system: SN12C renal
# UACC-257 melanoma = test system: UACC-257 melanoma
# SK-MEL-28 melanoma = test system: SK-MEL-28 melanoma
# KM20L2 colon = test system: KM20L2 colon
# KM12 colon = test system: KM12 colon
# DLD-1 colon = test system: DLD-1 colon
# CAKI-1 renal = test system: CAKI-1 renal
compound,measurement,setting,value
Cc1ccc2oc(=O)c3c(O)c4cccc(OC5OC(C)C6O[C@@H](c7ccccc7)OC6C5OC5OC(C)C(O)C(O)C5O)c4c4oc(=O)c1c2c34 (some centres not stated),TGI,DMS 273 small cell lung,1.09 µM
same,TGI,MDA-MB-231 breast,1350 nM
same,GI50,SN12C renal,251 nM
same,TGI,SN12C renal,1.76 µM and 4.73 µM
same,GI50,UACC-257 melanoma,309 nM
same,TGI,UACC-257 melanoma,1.82 µM and 2.12 µM
same,GI50,SK-MEL-28 melanoma,331 nM
same,TGI,SK-MEL-28 melanoma,1.88 µM and 2.01 µM
same,TGI,KM20L2 colon,4.08 µM
same,GI50,KM12 colon,48.6 nM
same,TGI,KM12 colon,1.43 µM and 1.92 µM
same,TGI,DLD-1 colon,6.08 µM
same,GI50,CAKI-1 renal,41.5 nM
CCOC(=O)[C@@]12C(C)=CC(=O)O[C@]1(C)C1C(=O)NC(=O)C12 (some centres not stated),TGI,DMS 273 small cell lung,> 100 µM
same,TGI,UACC-257 melanoma,> 100 µM
same,TGI,SK-MEL-28 melanoma,> 100 µM
same,TGI,KM20L2 colon,> 100 µM
same,TGI,KM12 colon,> 100 µM
same,TGI,DLD-1 colon,> 100 µM
Cc1cc(Cl)cc2c1NC(=O)C2(O)CC(=O)c1ccc(Br)cc1 (configuration not stated),TGI,DMS 273 small cell lung,> 100 µM
same,TGI,SN12C renal,> 100 µM
same,TGI,UACC-257 melanoma,> 100 µM
same,TGI,SK-MEL-28 melanoma,97.9 µM
same,TGI,KM20L2 colon,> 100 µM
same,TGI,KM12 colon,> 100 µM
same,TGI,DLD-1 colon,> 100 µM
same,TGI,CAKI-1 renal,> 100 µM
O=C(c1ccccc1)c1nnn(Cc2ccccc2Cn2nnc(C(=O)c3ccccc3)c2C(=O)c2ccccc2)c1C(=O)c1ccccc1,TGI,DMS 273 small cell lung,> 100 µM
same,TGI,SN12C renal,> 100 µM
same,TGI,UACC-257 melanoma,> 100 µM
same,TGI,SK-MEL-28 melanoma,> 100 µM
same,TGI,KM20L2 colon,> 100 µM
same,TGI,KM12 colon,> 100 µM
same,TGI,DLD-1 colon,> 100 µM
same,TGI,CAKI-1 renal,> 100 µM
Cc1ccc(N2C(=O)/C(=C/c3ccc(N(CCC#N)CCC#N)cc3)N=C2COc2ccc(Cl)cc2Cl)cc1,TGI,SN12C renal,> 100 µM
same,TGI,UACC-257 melanoma,> 100 µM
same,TGI,SK-MEL-28 melanoma,> 100 µM
same,TGI,KM20L2 colon,> 100 µM
same,TGI,KM12 colon,> 100 µM
same,TGI,DLD-1 colon,> 100 µM
same,TGI,CAKI-1 renal,> 100 µM
Brc1cc(C2OCCCO2)ccc1OCc1ccccc1,TGI,DMS 273 small cell lung,> 100 µM
same,TGI,SN12C renal,> 100 µM
same,TGI,UACC-257 melanoma,> 100 µM
same,TGI,SK-MEL-28 melanoma,> 100 µM
same,TGI,KM12 colon,> 100 µM
same,TGI,DLD-1 colon,> 100 µM
same,TGI,CAKI-1 renal,> 100 µM
CN1CCC(c2c(O)cc(O)c3c(=O)cc(-c4ccccc4Cl)oc23)C(O)C1 (configuration not stated),TGI,SN12C renal,> 100 µM
same,TGI,SK-MEL-28 melanoma,0.6 µM
same,GI50,KM20L2 colon,262 nM
same,TGI,KM20L2 colon,> 100 µM
same,TGI,KM12 colon,> 100 µM
same,TGI,DLD-1 colon,> 100 µM
CC1=NN(c2ccccc2)C(=O)C12[C@H](c1ccccc1)C2(C#N)C#N (some centres not stated),TGI,DMS 273 small cell lung,6.28 µM
same,TGI,SN12C renal,14.3 µM
same,TGI,UACC-257 melanoma,18.4 µM
same,TGI,SK-MEL-28 melanoma,9.6 µM
same,TGI,KM20L2 colon,27.3 µM
same,TGI,KM12 colon,25.1 µM
same,TGI,DLD-1 colon,4.01 µM
same,TGI,CAKI-1 renal,16.3 µM
CCC1CCCCN1CC(C(C)=O)C(c1ccccc1)c1c(O)c2ccccc2oc1=O (configuration not stated),TGI,DMS 273 small cell lung,> 100 µM
same,TGI,SN12C renal,> 100 µM
same,TGI,UACC-257 melanoma,> 100 µM
same,TGI,SK-MEL-28 melanoma,> 100 µM
same,TGI,KM20L2 colon,> 100 µM
same,TGI,KM12 colon,> 100 µM
same,TGI,DLD-1 colon,> 100 µM
same,TGI,CAKI-1 renal,> 100 µM
O=[N+]([O-])c1cc(/C=N\NS(=O)(=O)c2ccc(Cl)cc2)c(O)c([N+](=O)[O-])c1,TGI,DMS 273 small cell lung,73.3 µM
same,TGI,SN12C renal,87.4 µM
same,TGI,UACC-257 melanoma,> 100 µM
same,TGI,SK-MEL-28 melanoma,> 100 µM
same,TGI,KM20L2 colon,74.1 µM
same,TGI,KM12 colon,67.1 µM
same,TGI,DLD-1 colon,> 100 µM
same,TGI,CAKI-1 renal,> 100 µM
COC(=O)/C(C#N)=C1\CCC(OC)N1C (configuration not stated),TGI,DMS 273 small cell lung,> 100 µM
same,TGI,SN12C renal,> 100 µM
same,TGI,UACC-257 melanoma,> 100 µM
same,TGI,SK-MEL-28 melanoma,> 100 µM
same,TGI,KM20L2 colon,> 100 µM
same,TGI,KM12 colon,> 100 µM
same,TGI,DLD-1 colon,> 100 µM
same,TGI,CAKI-1 renal,> 100 µM

# Reference: PubChem BioAssay (NCI)
